What was measured:
[1] = tested on: NIH 3T3 cells; assay: Control of cellular division and proliferation induced by SPC ([3H]-thimidine incorporation); format: cell-based
Method: Treatment of cells with sphingosylphosphorylcholine (SPC) can induce excessive cellular division and proliferation, thus causing pathological skin conditions [Desai, Biochem. Biophys. […] Accordingly, the compounds prepared in the above Examples were tested for an effect on cellular division and proliferation induced by SPC.
First, 1×10^5 (usually 1×10^4˜10^5) NIH 3T3 cells (American Type Culture Collection, Manassas, Va., USA) were dispensed and cultured on a culture plate, and then cultured in RPMI medium containing no fetal bovine serum for 24 hours to achieve serum starvation. The cells were treated with the compounds prepared in the above Examples, and FTY720, a sphingosine-1-phosphate (S1P) agonist, at concentrations of 0.001 μM, 0.01 μM, 0.1 μM and 1 μM, and were incubated for 30 minutes. Then, SPC (Biomol, Plymouth Meeting, Pa., USA) was added thereto at a concentration of 7 μM, and the cells were incubated at 37° C. for 24 hours. […] Proliferation %=(group treated with test drug−group not treated with SPC)/(group treated with SPC alone−group not treated with SPC)×100 [Equation 1]

[2] = tested on: human umbilical vein endothelial cells (HUVECs); assay: Inhibitory effect on chemotactic cell migration induced by SPC (Boyden chamber analysis); format: cell-based; conditions: HUVEC
Excerpt: Recently, it was reported that SPC plays an important role in chemotactic cell migration, similar to vascular endothelial cell growth (VEGF) [Boguslawski et al, Biochem Biophys Res Commun., 2000, 272, 603-609]. The phenomenon in which cells migrate in a living body by special cytokines or kemokines is a key step in a process, such as migration of immune cells to sites of inflammation, or angiogenesis caused by endothelial cells. Accordingly, the effect of the compounds prepared in the above Examples on chemotactic cell migration induced by SPC was tested by Boyden chamber analysis.
First, a 25×80 mm polycarbonate membrane (Neuro Probe, Inc.) having 8 μm pores was overnight coated by immersion in a solution containing 0.01% gelatin and 0.1% acetic acid solution and was naturally dried at room temperature.
Meanwhile, human umbilical vein endothelial cells (HUVECs) cultured in complete EBM-2 medium containing 2% fetal bovine serum were incubated in EBM-2 medium (Cambrex, Catalog No. CC-3121) containing no fetal bovine serum for 4 hours to achieve serum starvation, and then the cells were harvested with trypsin/EDTA solution. The HUVEC cells were suspended in EBM-2 medium containing 0.1% fetal bovine serum. Then, the cells were dispensed in a silicon-coated Eppendorf tube, the compound of Example 1-31 as a test drug was added to the cells in amounts of 0.1, 1 and 10 μg/ml, and the cells were treated with the compound at 37° C. for 30 minutes. 27 μL of EBM-2 medium containing 10 μM SPC or EBM-2 medium containing no SPC was dispensed in each well of the lower chamber of the Boyden chamber, and a gelatin-coated membrane was placed in the lower chamber, such that the glossy surface of the membrane was faced downward. A gasket was placed on the membrane, and then the upper chamber was assembled. 5×10^4 (56 μl) HUVEC cells treated with the drug were dispensed in each well of the upper chamber and incubated in a CO2 incubator at 37° C. for 8 hours. The membrane was separated, stained with Diff-Quik dye (Sysmex Corporation), washed with deionized water, and then attached to a slide glass, such that the glossy surface was faced downward. The cells attached onto the membrane were carefully wiped with kimwipes or cotton swabs, and then each well was photographed in five fields (200× magnification), and the cells were counted. Inhibition of chemotactic cell migration was calculated according to the following equation 2, and the results are shown in Table 3 below. Inhibition %=(group treated with SPC alone−group treated with test drug)/(group treated with SPC alone−group not treated with SPC)×100 [Equation 2]

[3] = tested on: TPA-induced inflammation model; assay: Control of inflammatory reaction in mouse TPA-induced inflammation model (ear weight and MPO activity); format: in vivo; conditions: ICR mice
Method: In order to examine an inhibitory effect on inflammatory reactions, the following test was carried out using tetradecanoyl phorbol acetate (hereinafter referred to as “TPA”)-induced inflammation model.
The TPA-induced inflammation model was a test method which has been widely used to test inflammatory reaction mechanisms and the effect of inhibitory substances [De Young L M et al., Agents and Actions, 1989, 26, 335-341]. When TPA which is a substance causing an inflammatory reaction is applied to the ear of a test subject, erythema and edema occur. Such inflammatory reactions are measurable through the increase in the activity of myeloperoxidase (MPO) which is essential for bacterial invasion into white blood cells.
Forty 6-week-old ICR mice were prepared, and 20 μl of a TPA solution (Sigma Aldrich Korea) obtained by dissolving TPA in acetone at a concentration of 125 μg/ml was applied to the left ear of each animal. At 1 hour after the application of TPA, 20 μl of each of acetone, the compounds of Examples dissolved in acetone at a concentration of 0.3%, and hydrocortisone (Sigma Aldrich Korea) dissolved in acetone at a concentration of 0.3% was applied to the TPA-applied site, and at 6 hours after the application of TPA, it was applied again to the same site in the same amount (20 μl). At 24 hours after the application of TPA, the mice were sacrificed by cervical dislocation, and the left ear was collected in a given width and measured for weight and MPO activity. Inhibition % of inflammatory reactions was calculated according to the following equation 3, and the results are shown in Table 4 below. Inhibition %=(group treated with TPA alone−group treated with test drug)/(group treated with TPA alone−group not treated with TPA)×100 [Equation 3]

Compound: COc1ccccc1N1CCN(c2nc(NC(=O)C(C)(C)C)c(C(=O)N3CCCCC3)s2)CC1 [Example 1-31, N-{2-[4-(2-methoxyphenyl)-piperazin-1-yl]-5-(piperidine-1-carbonyl)thiazol-4-yl}pivalamide]
- IC50 ([1]; Mus musculus, NIH3T3, serum starved, compound 0.001-1 μM 30 minutes, then SPC 7 μM, 24 hours, read-out: antagonistic effect on SPC IC50): 5.42 nM
- inhibition of cellular division and proliferation induced by SPC (in words) ([1]; SPC 7 μM): dose-dependently inhibited
- inhibition of chemotactic cell migration caused by SPC (in words) ([2]; Boyden chamber): strongly inhibited
- inhibition at 0.1 µg/mL ([2]; Homo sapiens, 0.1 μg/ml, 10 μM SPC, 8 hours): 44%
- inhibition at 1 µg/mL ([2]; Homo sapiens, 1 μg/ml, 10 μM SPC, 8 hours): 58%
- inhibition at 10 µg/mL ([2]; Homo sapiens, 10 μg/ml, 10 μM SPC, 8 hours): 69%
- Inhibition (%) of inflammatory reaction (ear edema, ear weight) ([3]; 0.3% in acetone, 20 μl on the ear at 1 hour and 6 hours after TPA, measured at 24 hours): 84%
- inhibition of TPA-induced inflammatory reactions, ear edema and MPO activity (in words) ([3]; 0.3% topical, compared with hydrocortisone): significantly inhibited
- Inhibition (%) (MPO inhibition) ([3]; value in brackets, 0.3% in acetone, 20 μl on the ear at 1 hour and 6 hours after TPA, MPO activity of ear at 24 hours): 78%

Reference: patent US7915405B2, “2,4-disubstituted-5-aminocarbonyl-1,3-thiazole derivatives for therapeutic agent of antiinflammatory disease, method thereof for preparation, therapeutic agent for antiinflammatory disease induced by SPC activity containing the same” (Korea Research Institute of Chemical Technology, priority 2008, dated 2011)
